Test [1] has as its system patients with postural imbalance / gait disorder; subjects. Briefly: clinical examination and patient/family reports of balance, gait, dizziness and falls. The class given is in vivo, human. The text has this:
In addition to the mobility assessments disclosed above, mobility in a subject having a mobility disorder associated with ageing may be tested, for example, using assessments of balance and/or through monitoring the number of falls experienced by the subject.

The test system of test [2] is rat model of an acute unilateral labyrinthectomy. As to conditions: by activation of the vestibulo-cerebellum and deactivation of the posterolateral thalamus; ref (4); cited from earlier work.

Consider `N[C@@H](Cc1ccc(O)c(O)c1)C(=O)O` [L-Dopa], for which the improvement during treatment result is given as “no improvement was observed” in test [1] (Example 2: person, balance disorder, Datscan borderline pathological) and “No improvement was observed” in test [1] (Example 5: patient, progressive gait disorder).
In the case of `CC(=O)N[C@@H](CC(C)C)C(=O)O` [N-acetyl-L-leucine], the “effect on postural compensation” value in test [2] is on record as “significant effect”.

The values are drawn from US12329733B2, “Acetyl-leucine or a pharmaceutically acceptable salt thereof for improved mobility and cognitive function” (INTRABIO LTD., priority 2016, dated 2025).
